In patent US20120225852A1, “USE OF STEROID COMPOUNDS” (priority 2009, published 2012):

What was measured:
[1] = tested on: Lymph node (LN) cells from unprimed DO11.10 TCR Tg mice; test: OVA-stimulated lymph node cell culture, T cell proliferation; assay type: cell-based
[2] = tested on: purified CD4+ T cells from unprimed BALB/c mice; test: Purified CD4+ T cells stimulated with α-CD3/α-CD28; assay type: cell-based; conditions: non antigen-specific stimulation; FIG. 3
Excerpt: The decreased proliferative response of CD4^+ T cells was not due to increased cell death as evident by similar numbers of CD4^+ 7AAD^− cells in all cultures after flow-cytometric analysis (FIG. 4).

[3] = tested on: experimental autoimmune encephalomyelitis (EAE); test: MOG peptide-induced EAE, treatment from the day of EAE onset; assay type: in vivo, C57BL/6 mice; conditions: 2 mg/mouse i.p. daily from EAE onset until day 26
Experimental: Tests were also carried out to discover whether DHEA and its spiro-analogs were protective after the onset of experimental autoimmune encephalomyelitis (EAE). For these tests, acute EAE was induced in C57BL/6 mice, as previously described. […] Mice were monitored daily in a blinded fashion for clinical symptoms (paralysis). Tissues (brain, spinal cord, DLNs) were collected in order to perform histological evaluation (staining with H&E on brain and spinal cord sections) and ex vivo cultures for measurement of T cell responses and cytokine release.

EAE = EAE after cessation of 15 days of treatment, 45 additional days of monitoring; assay type: in vivo, C57BL/6 mice
Excerpt: The mice continued to be monitored daily for clinical signs of EAE for 45 additional days thereafter.

With `C[C@]12CC[C@H](O)CC1=CC[C@@H]1[C@@H]2CC[C@]2(C)C(=O)CC[C@@H]12` [DHEA, dehydroepiandrosterone] the “proliferation of the T cells that respond to the antigen” value ([1]; LN cells stimulated with OVA, vs control RPMI, FIG. 1) was “significantly decreased”, the “effect on T cell responses in general” value ([1]; overall conclusion of Example 1 (FIGS. 1-4)) was “immunosuppressive effect” and the “effect on α-CD3/α-CD28 stimulated CD4+ T cells” value [2] was “same suppressive effect”. For the same compound, the degree of paralysis [3] was “decreased”, the clinical course ([3]; FIG. 11) was “improvement/reversal” and the mean maximum score ([3]; FIG. 12) was “decrease”. The “protection from EAE development after cessation of treatment” value (EAE; treated 15 days from around day 13, monitored 45 additional days, FIGS. 34 and 35) was “remained protected” and the “disease score after cessation of treatment” value (EAE; treated 15 days, monitored 45 additional days, vs control mice) was “remained unchanged”.
